This is an account of results in ChEMBL document CHEMBL3286127, “Aminoadamantanes with persistent in vitro efficacy against H1N1 (2009) influenza A” (J Med Chem, 2014).

Assay [1] relates to Influenza A virus. Description: Antiviral activity against Influenza A virus A/WS/33(H1N1) infected in MDCK cells expressing M2 S31N mutant after overnight incubation by fluorescence-based miniplaque assay. The format is functional, organism-based.
Assay [2] is described as follows: Antiviral activity against Influenza A virus (A/California/07/2009(H1N1)) infected in MDCK cells expressing M2 S31N mutant after overnight incubation by fluorescence-based miniplaque assay. In kind it is functional, cell-based.
The test system of assay [3] is Influenza A virus. Description: Antiviral activity against Influenza A virus (A/Puerto Rico/8/34(H1N1)) infected in MDCK cells expressing M2 V27T/S31N mutant after overnight incubation by fluorescence-based miniplaque assay. In kind it is functional, organism-based, A/Puerto Rico/8/1934(H1N1).
Assay [4] relates to Matrix protein 2 (Influenza A virus (A/Udorn/307/1972(H3N2))), P0DOF8 [S31N]. In kind it is cell-based. The following applies: Influenza A virus (A/California/08/2009(H1N1)); HEK293; 100 uM.

pEC50: −log10 of the molar value.

For `NC1(Cc2ccccc2)C2CC3CC(C2)CC1C3` (stereo not given), the figures for the pEC50 in assay [1], in assay [2] and in assay [3] were 3.55, 5.07 and 5.92, respectively.
Turning to `NC12CC3CC(CC(C3)C1)C2` [AMANTADINE], the pEC50 in assay [1] is 4.62; in assay [2] it was 3.62; in assay [3], 4.62.
As to `CCCCC1(N)C2CC3CC(C2)CC1C3` (stereo not given), the pEC50 in assay [1] is 3.45; in assay [2] it was 5.07; in assay [3] it was 6.52.
On the same counts, the results for `CC(C)CC1(N)C2CC3CC(C2)CC1C3` (stereo not given) are 3.68, 5.10 and 6.52.
As to `CCCCCCC1(N)C2CC3CC(C2)CC1C3` (stereo not given), the negative logarithm of the EC50 (pEC50) in assay [1] was 4.89; in assay [2], 6.89; in assay [3], 7.15.
Taken in the same sequence, the figures for `CCC1(N)C2CC3CC(C2)CC1C3` (stereo not given) were 4.64, 4.60 and 5.74.
For the molecule `NC1C2CC3CC(C2)CC1C3` (stereo not given), the Activity in assay [4] amounted to 16%. The pEC50 in assay [1] is 3.96; in assay [2] it was 3.82; in assay [3] it was 5.42.
Take `NC1(c2ccccc2)C2CC3CC(C2)CC1C3` (stereo not given): the pEC50 in assay [1] was 4.07; in assay [2], 4.68; in assay [3], > 6.52.
`CCCC1(N)C2CC3CC(C2)CC1C3` (stereo not given): the Activity in assay [4] came to 9.4%. For the same molecule, the negative-log EC50 (pEC50) is 3.41 in assay [1], 5.33 in assay [2] and 6.30 in assay [3].
For `CC(N)C12CC3CC(CC(C3)C1)C2` (stereo not given) [RIMANTADINE], the negative-log EC50 (pEC50) in assay [1] is 3.51; in assay [2], 3.96; in assay [3], 5.48.
Consider `CC1(N)C2CC3CC(C2)CC1C3` (stereo not given), for which the pEC50 in assay [1] was 4.72; in assay [2], 4.27; in assay [3], 6.40.
